Assay results reported in ChEMBL document CHEMBL1201862, “PubChem BioAssay data set” (2004).
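Method: 48-hour compound exposure of cells in 96-well plates, five concentrations, linear interpolation of endpoints. Abbreviation: GI50, concentration required for 50% inhibition of growth.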 Activity calls are given as the source filed them. Cut-off read from the data, not from the text of the source: active = GI50 up to about 1.1 µM and inactive = higher.

Assays:
Experiment in all cases: DTP human tumour cell line panel, 48 h
BT-549 = test system: BT-549
CAKI-1 = test system: CAKI-1
HCC 2998 = test system: HCC 2998
HL-60 = test system: HL-60
LOX IMVI = test system: LOX IMVI
M14 = test system: M14
MCF7 = test system: MCF7
MDA-MB-435 = test system: MDA-MB-435
PC-3 = test system: PC-3
RPMI-8226 = test system: RPMI-8226
SF-268 = test system: SF-268
SK-MEL-28 = test system: SK-MEL-28
SK-MEL-2 = test system: SK-MEL-2
SK-MEL-5 = test system: SK-MEL-5
SNB-19 = test system: SNB-19
SNB-75 = test system: SNB-75
SR = test system: SR
SW-620 = test system: SW-620
TK-10 = test system: TK-10
U-251 = test system: U-251

Measured: GI50

O=C(CNc1ccc(Cl)cc1)Nn1c(-c2ccccc2)nc2ccccc2c1=O
inactive: BT-549 2.32 µM | CAKI-1 11.4 µM | HCC 2998 11.1 µM | HL-60 6.65 µM | LOX IMVI 1.3 µM | M14 6.18 µM | MCF7 3.32 µM | MDA-MB-435 8.17 µM | PC-3 12.6 µM | RPMI-8226 4.47 µM | SF-268 4.62 µM | SK-MEL-28 6.64 µM | SK-MEL-2 16 µM | SK-MEL-5 2.84 µM | SNB-19 10.8 µM | SNB-75 10.1 µM | SR 3.28 µM | SW-620 5.12 µM | TK-10 16.4 µM | U-251 3.47 µM

NCC(=O)Nc1ccc(Cl)cc1C(=O)c1ccc[nH]1
inactive: BT-549 70.3 µM | CAKI-1 78 µM | HCC 2998 31.8 µM | HL-60 15.1 µM | LOX IMVI 9.95 µM | M14 99.3 µM | MCF7 6.31 µM | MDA-MB-435 45.2 µM | PC-3 25.9 µM | RPMI-8226 5.57 µM | SF-268 49 µM | SK-MEL-28 > 93.5 µM | SK-MEL-2 61.1 µM | SK-MEL-5 49 µM | SNB-19 > 100 µM | SNB-75 38.5 µM | SR 8.99 µM | SW-620 13.6 µM | TK-10 > 94.6 µM | U-251 15.2 µM

Cc1sc2[nH]c(=O)oc(=O)c2c1C
inactive: BT-549 22.9 µM | CAKI-1 35.8 µM | HCC 2998 > 88.5 µM | HL-60 37 µM | LOX IMVI 44.6 µM | M14 > 61.9 µM | MCF7 26.1 µM | MDA-MB-435 39.9 µM | PC-3 > 100 µM | RPMI-8226 41.2 µM | SF-268 53.8 µM | SK-MEL-28 > 71.8 µM | SK-MEL-2 37.7 µM | SK-MEL-5 48.3 µM | SNB-19 > 100 µM | SNB-75 > 55.8 µM | SR 37.8 µM | SW-620 > 80.4 µM | TK-10 > 100 µM | U-251 51.4 µM

CCOC(=O)Cn1nnc2ccc(Nc3nc4ccccc4nc3C(=O)OCC)cc21
inactive: BT-549 73.8 µM | CAKI-1 > 100 µM | HCC 2998 87.3 µM | HL-60 > 100 µM | LOX IMVI > 100 µM | M14 > 100 µM | MCF7 > 100 µM | MDA-MB-435 > 100 µM | PC-3 > 100 µM | RPMI-8226 > 100 µM | SF-268 27.2 µM | SK-MEL-28 > 100 µM | SK-MEL-2 > 100 µM | SK-MEL-5 > 100 µM | SNB-19 69.5 µM | SNB-75 18.5 µM | SR > 100 µM | SW-620 > 100 µM | TK-10 45.1 µM | U-251 74 µM

CC1=NN(c2nc(N)nc(CF)n2)C(C)(C)C1
inactive: BT-549 > 100 µM | CAKI-1 > 100 µM | HCC 2998 > 100 µM | HL-60 > 100 µM | LOX IMVI > 100 µM | M14 > 100 µM | MCF7 > 100 µM | MDA-MB-435 > 100 µM | PC-3 > 100 µM | RPMI-8226 > 100 µM | SF-268 > 100 µM | SK-MEL-28 > 100 µM | SK-MEL-2 > 100 µM | SK-MEL-5 > 100 µM | SNB-19 > 100 µM | SNB-75 > 100 µM | SR > 100 µM | SW-620 > 100 µM | TK-10 > 100 µM | U-251 > 100 µM

COc1ccc(C2c3cc4c(cc3OC(NNS(=O)(=O)c3ccc(C)cc3)C2C)OCO4)cc1 (stereo not given)
inactive: BT-549 53.5 µM | CAKI-1 65.9 µM | HCC 2998 > 100 µM | HL-60 21.6 µM | LOX IMVI 79.8 µM | M14 > 100 µM | MCF7 41.1 µM | MDA-MB-435 54.6 µM | PC-3 21 µM | RPMI-8226 12.5 µM | SF-268 > 100 µM | SK-MEL-28 > 100 µM | SK-MEL-2 59.7 µM | SK-MEL-5 69.5 µM | SNB-19 > 100 µM | SNB-75 37.4 µM | SR 9.12 µM | SW-620 73.5 µM | TK-10 > 100 µM | U-251 83.4 µM
